How the values were obtained:
[1] = target: T1, TtgR (Pseudomonas putida), regulator sequence SEQ ID NO: 14 (Pseudomonas putida, UniProt Q9AIU0); format: cell-based
T1 construct: expressed in transfected cells; host or cells: E. coli DH5alpha transformed with pJKR-H (high copy) or pJKR-L (low copy) plasmid
Experimental: (§1) DH5α cells transformed with pJKR plasmids and maintained with carbenicillin were used in the induction assays. For each induction evaluation experiment, the cells were grown overnight to saturation before being diluted 1:100 into fresh LB media and incubated at 200 RPM and 37° C. After four hours, 150 μl of the log-phase cells were transferred to 96-well plates and stock inducer was added to achieve the desired range of induction concentrations. Three separate wells were inoculated and independently supplemented with the appropriate amount of inducing chemical for each level of induction. Measurements were made on the same Biotek (Winooksi, Vt.) HT plate reader using the same settings: excitation 485/20, emission 528/20, 37° C. and fast shaking. Fluorescence and absorbance were measured every 10 minutes for 15 hours. Fluorescence was measured in arbitrary units (AFU) while optical density was determined by absorbance (OD). Normalized fluorescence was determined by dividing fluorescence by optical density for a given measurement. Five independent wells containing control strains, transformed with pUC19, were included to provide a measurement of background autofluorescence.

[2] = system: muconate biosensor benM in BL21 cells; experiment: Real-time muconate monitoring from pathway intermediates with benM biosensor; format: cell-based, E. coli; conditions: strain with muconate biosynthesis pathway
Excerpt: A cell was genetically modified to include the muconate biosensor benM regulating production of a fluorescent molecule, and a LysR-type transcriptional regulator derived from Acinetobacter baylyi (see Craven, S. H., Ezezika, O. C., Haddad, S., Hall, R. A., Momany, C. and Neidle, E. L. (2009) Inducer responses of BenM, a LysR-type transcriptional regulator from Acinetobacter baylyi ADP1. Mol Microbiol, 72, 881-894 hereby incorporated by reference in its entirety). This setup is analogous to the previously described muconate artificial selection in which benM controls expression of an antibiotic resistance gene (see Raman, S., Rogers, J. K., Taylor, N. D. and Church, G. M. (2014) Evolution-guided optimization of biosynthetic pathways. Proceedings of the National Academy of Sciences of the United States of America, 111, 17803-17808 hereby incorporated by reference in its entirety. In order to achieve various muconate production rates for real-time observation, muconate was produced from a range of precursor molecules by implementing the biosynthetic pathway developed by Draths and Frost (see Niu, W., Draths, K. M. and Frost, J. W. (2002) Benzene-free synthesis of adipic acid. Biotechnology progress, 18, 201-211 and Draths, K. M. and Frost, J. W. (1994) Environmentally Compatible Synthesis of Adipic Acid from D-Glucose. […]
Muconate production monitoring was carried out in BL21 cells doubly transformed with pJKR-H-benM and the muconate production plasmid. […] After four hours, 150 μl of the log-phase cells were transferred to 96-well plates and monitored in the plate reader. After one hour, the specified concentration of pathway intermediate was added in triplicate and fluorescence monitoring was resumed. […] The quantity of muconate in the supernatant was determined by HPLC. […]

[3] = system: glucarate biosensor cdaR in BL21 cells; experiment: Real-time glucarate monitoring from pathway intermediates with cdaR biosensor; format: cell-based, E. coli; conditions: strain with biosensor and biosynthesis pathway
Experimental: In representative examples, identical production conditions (genetics, media composition) were maintained but the exogenously supplemented precursor molecules were varied. […] The end-point fluorescence achieved by the addition of myo-inositol is just 20% that of glucuronate addition.
Glucarate production monitoring was carried out in BL21 cells doubly transformed with pJKR-H-cdaR and pJKR-GA-EXP. BL21 transformed with pJKR-H-cdaR alone was used as a control. Overnight cultures back-diluted 1:100 into Davis media supplemented with 5 g/L glucose. After four hours incubating at 200 RPM and 37° C., 150 μl of the log-phase cells were transferred to 96-well plates and exposed to 1 mM IPTG with the pathway intermediates described. […] End-point measurements were taken after eight hours. Glucarate production for titer measurement was carried out in BL21 transformed with pJKR-GA-EXP. An overnight culture was inoculated 1:100 into 1 mL of LB supplemented with 1 mM IPTG and the specified concentration of pathway intermediate. Production took place in 96-well blocks at 900 RPM and 37° C. for eight hours before supernatants were isolated and 0.2 μm filtered for LC/MS. All production runs were setup in triplicate. Error bars represent the 95% confidence interval derived from the standard error of the mean.

[4] = system: inducible promoter driving sfGFP in DH5α cells; experiment: Hill-function fit of maximum GFP expression rate to inducer concentration; format: cell-based, E. coli
Experimental: The GFP expression rate was calculated at each time-point with the formula ΔGFP/OD. Scipy was used to perform a non-linear least-squares fit of the maximum GFP expression rate to the corresponding inducer concentration using the Hill function
Vmax is the maximum rate of GFP expression, Vmin is basal rate of GFP expression, I is the concentration of inducer, h is the hill coefficient and KL is the lumped half-maximal parameter described in Results. The variance of each parameter was determined from the least-squares covariance matrix.
A model of gene activation is applied as described herein to relate promoter activity to inducer concentration. Promoter activity is defined as the time derivative of fluorescence corrected for cell growth. […] Gene expression rates were fit to a Hill function adapted to account for both the maximum velocity of gene expression and the basal expression of the uninduced cells.

TtgR biosensor = TtgR biosensor induction with phenol and related compounds; format: cell-based, E. coli; conditions: 0.1% phenol, 0.1% catechol, up to 0.4% benzene; fluorescence after 90 minutes
Experimental: All experiments were carried out in triplicate.
as §1

## CC(C)c1ccc(C(=O)O)cc1 [Cumate, cumate]
[1]; cross-reactivity panel, 20 μM
  Activation of TtgR by cumate: not activated

## O=C(O)C1=CC(=O)[C@@H](O)[C@H](O)C1 [DHS, 3-dehydroshikimate]
[2]
  fluorescence response of muconate biosensor: rapid fluorescence response

## O[C@H]1[C@H](O)[C@@H](O)[C@H](O)[C@@H](O)[C@H]1O [myo-inositol]
[3]
  lag of fluorescence response behind glucuronate: 60 min
[3]; eight hours
  end-point fluorescence relative to that of glucuronate addition: 20%

## O=C(O)c1ccc(O)c(O)c1 [protocatechuate]
[2]
  fluorescence response of muconate biosensor: rapid fluorescence response

## AraC
[4]; High copy number plasmid
  Basal Expression Velocity: 20 ± 50 s⁻¹
[4]; Low copy number plasmid
  Basal Expression Velocity: 40 ± 30 s⁻¹

## Oc1ccccc1O [catechol]
TtgR biosensor
  fluorescent response of TtgR biosensor: did not activate the sensor
[2]
  fluorescence response of muconate biosensor: rapid fluorescence response

## O=C(O)[C@H]1OC(O)[C@H](O)[C@@H](O)[C@@H]1O (mixture of isomers) [glucuronate]
[3]; eight hours
  end-point fluorescence relative to that of glucarate: 80%

## Oc1ccccc1 [Phenol, phenol]
[1]; 0.1%, 90 min
  Activation of TtgR sensor: only phenol activated the sensor
